According to patent US7700122B1, “Topical compositions comprising an opioid analgesic and an NMDA antagonist” (Memorial Sloan-Kettering Cancer Center, priority 1998, dated 2010):
Entries after “also recorded” stand apart in the source; their conditions may differ. Where a name gives a salt, the structure may show the parent alone.

Key:
[1] = test system: CD-1 mice; test: Effects of opioid antagonists on topical mu analgesia (tailflick); assay type: in vivo; conditions: for effect of 3-methoxynaltrexone on topical M6G response: 0.25 mg/kg s.c. 20 min prior, M6G 20 mM; for effect of naloxone on topical opioid analgesic responses: naloxone 1 mg/kg s.c. 20 min prior, M6G 20 mM topical 1 min
Protocol: (§1) Systemic drugs were given subcutaneously (s.c.) in the midscapular region of the back. Intracerebroventricularly (i.c.v.) and intrathecal injections were performed under light halothane anesthesia 30 and 15 min before testing, respectively, as previously reported (Kolesnikov et al, 1996). The i.c.v. injections were administered-2 mm caudal and 2 mm lateral to the bregma at a depth of 3 mm, whereas intrathecal injections were made by lumbar puncture. Drugs were given topically on the tail by immersion of the tail in dimethylsulfoxide (DMSO) solutions containing the indicated drugs. The distal portion of the tail (3 cm) was immersed in DMSO solution for 1 min. Tailflick latencies then were determined on the region of the tail immersed in the drug, unless otherwise stated. To ensure a local effect, testing was also done with a more proximal segment of tail not exposed to the drug solution.
(§2) Analgesia was assessed with the tail-flick assay, as previously reported (Kolesnikov et al., 1996). The tail was exposed to a focused beam of light and the latency of exposure determined. […] A maximum cutoff latency of 10 sec was used to minimize tissue damage in analgesic animals. Testing was performed 30 min after systemic administration, 15 min after either i.c.v or i.t. injections or immediately after termination of topical administration into the tail. Antinociception, or analgesia, was defined quantally as a tailflick latency for an individual mouse which was at least twice its baseline latency. Group comparisons were performed using the Fisher exact test. ED50 values were determined using the Bliss program, as previously reported (Pick et al., 1993). To ensure a local action, in all studies we examined a region of the tail which was immersed in DMSO as well as a more proximal segment which was not exposed.

[2] = test system: CD-1 mice; test: Tolerance to systemic and topical morphine and cross tolerance (tailflick); assay type: in vivo; conditions: for response to topical opioid after chronic systemic morphine (cross tolerance): morphine 5 mg/kg s.c. daily five days, tested day six, 1 min local exposure (morphine 15 mM, M6G 20 mM, DAMGO 2 mM)
Protocol: as §1, §2

[3] = test system: CD-1 mice; test: Tailflick assay, topical opioid analgesia (tail immersion in DMSO solution); assay type: in vivo; conditions: for analgesic response in proximal tail not exposed to the opioid solution: mouse, in vivo; for Relative potency: ratio of topical ED50 against morphine; for ED50 (95% CL): topical for 1 min, tailflick assay, CD-1 mice; for analgesic response: morphine solution 7.5 mM
[4] = test system: CD-1 mice; conditions: subcutaneous injection in the tail, doses of 10 or 30 μg
[5] = central actions; cited from earlier work
[6] = test system: CD-1 mice; test: Effect of NMDA antagonists (MK801, ketamine) on topical morphine tolerance (tailflick); assay type: in vivo
Protocol: as §1, §2

[7] = test system: CD-1 mice; test: Interactions between topical and systemic or spinal morphine (tailflick); assay type: in vivo; conditions: for ED50: Mus musculus, topical, 0.5 h
Protocol: Testing was performed 10 min following drug administration. […] Testing was performed 30 min following drug administration.
as §1, §2

[8] = for Radioactivity, Tail Unexposed: unexposed tail less than 1 cm from exposed region
[9] = morphine 15 mM daily, after three days
[10] = tail immersed 3 min in 100 μCi/ml in DMSO, sampled within 5 min

Compound: COc1ccc2c3c1O[C@H]1C(=O)CC[C@@]4(O)[C@@H](C2)N(CC2CC2)CC[C@]314 [3-MeONtx, 3-methoxynaltrexone]
- effect of 3-methoxynaltrexone on topical M6G response [1]: significantly lowered the response only for M6G
- effect of 3-methoxynaltrexone on topical M6G response ([1]; listed as 3MeONtx): significantly lowered the M6G response
- effect of 3-methoxynaltrexone on topical morphine or DAMGO analgesia ([1]; 0.25 mg/kg s.c., morphine 15 mM, DAMGO 2 mM): inactive

Compound: C[C@@H](NC(=O)[C@@H](N)Cc1ccc(O)cc1)C(=O)NCC(=O)N(C)[C@@H](Cc1ccccc1)C(=O)NCCO [DAMGO, [D-Ala^2,MePhe^4,Gly(ol)^5]enkephalin]
- response to topical opioid after chronic systemic morphine (cross tolerance) [2]: significantly decreased
- analgesic response in proximal tail not exposed to the opioid solution [3]: no analgesic response
- Relative potency [3]: 5
- ED50 (95% CL) [3]: 1.6 mM (1-2.5)
- duration of action ([3]; topical, FIG. 1a): lasting almost an hour
- potency relative to morphine ([3]; topical, fixed exposure time): over 5 fold

Compound: CN1CC[C@]23c4c5ccc(O)c4O[C@H]2[C@@H](O[C@@H]2O[C@H](C(=O)O)[C@@H](O)[C@H](O)[C@H]2O)C=C[C@H]3[C@H]1C5 [M6G, morphine-6β-glucuronide]
- response to topical opioid after chronic systemic morphine (cross tolerance) [2]: no change
- analgesic response in proximal tail not exposed to the opioid solution [3]: did not display analgesia
- Relative potency [3]: 0.9
- ED50 (95% CL) [3]: 9.3 mM (7-14)
- topical analgesic response ([3]; topical paradigm, tailflick): full analgesic response
- ceiling effect of analgesia [4]: 30%
- central activity relative to morphine [5]: approximately 100 fold

Compound: C[C@]12N[C@H](Cc3ccccc31)c1ccccc12 [MK801, (5R,10S)— (+)-5-methyl-10,11-dihydro-5H-dibenzo[a,d]cyclohapten-5,10-immine hydrogen maleate]
- topical morphine response with intrathecal MK801 ([6]; MK801 1 μg i.t., morphine 15 mM daily): lost and ineffective
- topical morphine response with systemic MK801 (tolerance prevention) ([6]; MK801 0.1 mg/kg s.c., morphine 15 mM daily): remained essentially unchanged for five days
- reversal of established topical morphine tolerance by topical MK801 ([6]; MK801 0.3 or 3 mM from fourth day): reversed the previously established tolerance
- topical morphine response with topical MK801 3 mM (tolerance prevention) ([6]; morphine 15 mM 1 min daily): remained essentially unchanged for five days; also recorded: prevented the loss of responsiveness
- topical morphine response with topical MK801 0.15 mM [6, 9]: intermediate response
- topical morphine response with topical MK801 0.3 mM [6, 9]: prevented the loss of responsiveness; also recorded: effectively blocking tolerance

Compound: CN1CC[C@]23c4c5ccc(O)c4O[C@H]2[C@@H](O)C=C[C@H]3[C@H]1C5 [Morphine]
- day 3 response, systemic versus topical group ([2]; 5 mg/kg s.c. or topical 15 mM 1 min daily): significantly greater than the topical group
- ED50 ([2]; Mus musculus, topical, read-out: ED50 (95% confidence limits), Systemic, Naive): 4.3 mg/kg
- ED50 (95% confidence limits), Topical, Tolerant ([2]; after topical morphine 15 mM daily for two days): 78 mM (49, 123)
- response to topical opioid after chronic systemic morphine (cross tolerance) [2]: significantly decreased
- ED50 (95% confidence limits), Topical, Naive ([2]; naive mice, topical morphine): 8.3 mM (4.1-10.2)
- response to daily topical morphine alone after three days ([2]; topical 15 mM, 1 min, daily): lost and profound tolerance by the third day and complete loss analgesia by the third day
- response to spinal morphine alone ([7]; 100 ng, i.t.): no observable action
- response to systemic morphine alone ([7]; 1 mg/kg, s.c.): 10%
- potentiation of analgesic potency of systemic morphine by topical morphine ([7]; 30 min): ~7 fold
- ED50 ([7]; read-out: ED50 value, Systemic + topical): 0.66 mg/kg
- ED50 ([7]; read-out: ED50 value, Systemic alone): 4.3 mg/kg
- ED50 value, Spinal alone ([7]; intrathecal morphine alone, tested 15 min): 550 ng (386-822)
- ED50 value, Spinal + topical ([7]; intrathecal morphine with fixed topical morphine 15 mM, tested 15 min): 46 ng (21-84)
- enhancement of potency of intrathecal morphine by topical morphine ([7]; mouse, in vivo): ~12 fold
- response of topical plus spinal morphine versus sum of routes ([7]; topical 15 mM 2 min + 100 ng i.t., 10 min): significantly more active than the sum of the two individual routes alone
- response of topical plus systemic morphine versus sum of routes ([7]; topical 15 mM + 1 mg/kg s.c., 30 min): significantly greater than the sum of the two ones alone
- response to topical morphine alone at 1 min ([7]; topical morphine 15 mM, 2 min exposure, 1 min after): 80%
- response to topical morphine alone at 10 min ([7]; topical morphine 15 mM, 10 min after): 30%
- response to topical morphine alone at 30 min ([7]; topical morphine 15 mM, 30 min after): no observable response; also recorded: No analgesia
- analgesic response ([3]; exposure 30 seconds): 25%
- analgesic response ([3]; exposure 2 min): 80%
- analgesic response ([3]; exposure one minute): 50%
- analgesic response in proximal tail not exposed to the opioid solution [3]: no analgesic response
- duration of the response ([3]; topical, FIG. 1a): less than 30 min
- onset of analgesia after removal of the tail from the opioid solution ([3]; topical, shortest time tested): detectable within one minute

Compound: CNC1(c2ccccc2Cl)CCCCC1=O (stereo not shown) [ketamine, 2-(2-chlorophenyl)-2-(methylamino) cyclohexanone]
- topical morphine tolerance with intrathecal ketamine ([6]; data not shown): ineffective
- topical morphine tolerance with systemic ketamine ([6]; data not shown): prevented the development of tolerance to topical morphine
- reversal of established topical morphine tolerance by topical ketamine 36 mM ([6]; ketamine from day 3 through day 6): completely restored morphine analgesia
- topical morphine tolerance with topical ketamine 3.6 mM ([6]; morphine 15 mM once daily): significantly lessened the loss of morphine analgesic response after three days; also recorded: delayed the appearance of tolerance
- topical morphine tolerance with topical ketamine 36 mM ([6]; morphine 15 mM once daily): prevented tolerance up to six days; also recorded: effectively blocked tolerance
- analgesia of ketamine alone ([6]; topical 36 mM): did not produce significant analgesia; also recorded: no appreciable effect

Compound: C=CCN1CC[C@]23c4c5ccc(O)c4O[C@H]2C(=O)CC[C@@]3(O)[C@H]1C5 [naloxone]
- effect of naloxone on topical opioid analgesic responses ([1]; morphine 15 mM, DAMGO 2 mM): easily reversed; also recorded: readily reversed
- effect of naloxone on topical opioid analgesic responses ([1]; morphine 15 mM, DAMGO 2 mM, listed as Naloxone): significantly reduced the responses for all agonists

Compound: [^125I]DAMGO [^125I-DAMGO]
- Radioactivity, Blood [8, 10]: <50 cpm/g
- Radioactivity, Brain [8, 10]: <50 cpm/g
- Radioactivity, Spinal cord [8, 10]: <50 cpm/g
- Radioactivity, Tail Exposed [8, 10]: 45,280 ± 2,637 cpm/g
- Radioactivity, Tail Unexposed [8]: 157 ± 51 cpm/g

Compound: [^125I]Morphine [^125I-Morphine]
- Radioactivity, Blood [8, 10]: 69 ± 18 cpm/g
- Radioactivity, Spinal cord [8, 10]: 71 ± 12 cpm/g
- Radioactivity, Tail Exposed [8, 10]: 38,460 ± 3,455 cpm/g
- Radioactivity, Tail Unexposed [8]: 234 ± 51 cpm/g
